Laboratory results taken from patent US11214593B2, “Anticancer peptides and uses thereof” (SUIGENERIS FARMACOSMETICS, S.L., priority 2017, dated 2022).
No end group written: not given here.

What was measured:
[1] = test system: human pancreatic tumor cell line BXPC3; assay: In vitro proliferation assay, cancer growth-inhibitory activity (Assay 1, crystal violet staining); type: cell-based; details: BXPC3 cells, peptide 20 μM final concentration, 72 h, FIG. 1-A
Text: (§1) The BXPC3 cell line from primary adenocarcinoma of human pancreas was provided by the Biomedical Research Institute (IRB) of Barcelona, and human umbilical cord primary endothelial cells (HUVEC) were obtained directly by the investigator and stored in liquid nitrogen in the laboratory. BXPC3 cells were maintained in RPMI-1640 culture medium (Gibco) supplemented with 10% fetal bovine serum and antibiotics. HUVEC cells were maintained in M199 culture medium (Gibco) supplemented with 20% fetal bovine serum, endothelial cell growth supplement (ECGS), Heparin (Hep) and antibiotics. Cultures were maintained in the cell incubator in a humid atmosphere at 37° C. containing 5% CO2.
(§2) The different peptides to be tested were easily dissolved in DMSO at a concentration of 50 mM and subsequently a 5 mM intermediate dilution was prepared in Dulbecco's PBS which was subjected to two short cycles of sonication, which retendered the peptides completely soluble. […]
(§3) Assays with the different peptides were performed following the protocol explained below. […] Once resuspended in culture medium, they were counted in Newbauer's chamber after a 1:1 dilution with trypan blue. […]
The optical density values per well were obtained by a Biotek Synergy™2 multi-detection microplate reader, using a 590 nm filter and by scanning reading, obtaining the mean values per well. […]

[2] = test system: human umbilical cord primary endothelial cells (HUVEC); assay: In vitro proliferation assay to test toxicity (Assay 2, crystal violet staining); type: cell-based; details: 10 μM up to 40 μM final concentration, 72 h, FIG. 2
Text: as §1, §2, §3
The optical density values per well were obtained by a Biotek Synergy™2 multi-detection microplate reader, using a 590 nm filter and by scanning reading, obtaining the mean values per well.

**Q.** How did the “inhibitory capacity on cancer cell growth (in words)” value [1] turn out when “CH3-C(O)-CFEVSKY-NH2 (Ac-CFEVSKY-NH2) [Peptide P1B, variant of the P1C peptide wherein the isoleucine is substituted by a valine]” was run?
**A.** The value was “remarkable inhibitory capacity”.

**Q.** How did the “effect on the growth of normal non-transformed cells (toxicity)” value [2] turn out when “Ac-CFEISKY-NH2 [Peptide P1C, CH3-C(O)-CFEISKY-NH2]” was run?
**A.** Its value is “did not affect the growth”.

**Q.** For “CFEISKY-NH2 [Peptide P1A, variant of the P1C peptide wherein the N-terminal end is free and the C-terminal end is amidated]”, which “inhibitory capacity on cancer cell growth (in words)” value [1] is on record?
**A.** The value was “remarkable inhibitory capacity”.
